Experimental data reported in patent publication US4414388A, “1-Oxo-1H-thiazolo[3,2-a]pyrimidine-2-carboxamides” (Pfizer Inc., priority 1981, dated 1983).
Entries after “also recorded” stand apart in the source; their conditions may differ. Where a name gives a salt, the structure may show the parent alone. Values belong to the compound of their own block, whether it stands above or below them.

Columns and labels:
gastric ulcers = conditions: animals, including humans; cited from earlier work
IgE = test: passive cutaneous anaphylaxis (PCA) test, oral, IgE (reaginic antiserum) site; type: in vivo, rat; conditions: Table I; for inhibition in vivo at 30 mg/kg: Rattus norvegicus, read-out: Oral Activity (% of Protection) of Amides in the PCA Test, IgE 30 mg./kg.
Protocol: (§1) The antiallergy property of the compounds of this invention is evaluated by the passive cutaneous anaphylaxis (PCA) test (Ovary, J. Immun., 81, 355, 1958). In the PCA test, normal animals are injected intradermally (i.d.) with antibodies contained in serum obtained from actively sensitized animals. The animals are then challenged intravenously with antigen mixed with a dye such as Evans' Blue. The increased capillary permeability caused by the antigen-antibody reaction causes the dye to leak from the site of the antibody injection. The test animals are then asphyxiated and the intensity of the reaction determined by measuring the diameter and intensity of the blue coloration on the inner surface of the animals' skin.
(§2) The PCA test is a measure of the anti-allergic (especially anti-asthmatic) activity of a compound. Compounds which inhibit a positive PCA test induced by the rat immunochemical counterpart of human immunoglobulin E (IgE), or reagin, are considered to have anti-allergic activity (C. Mota, Ann. N.Y. Acad. Sci., 103, 264 1963). (Reagin is primarily immunoglobulin E [IgE] and is the principal immunoglobulin responsible for allergic asthma, anaphylaxis, hay fever, food sensitivities and certain manifestations of drug sensitivities, although recent evidence ascribes to the IgG class of antibodies a significant role in the mediation of allergic diseases). Such compounds when administered to a sensitized subject, human or animal, prior to the time when the subject comes into contact with antigens or substances to which it is allergic, will prevent the allergic reaction which would otherwise occur. They, therefore, provide a method for the prophylactic treatment of allergy or anaphylactic reactions of a reagin mediated nature.
(§3) To put it another way, such compounds block the release of mediators resulting from the antigen-antibody (allergic) reaction as illustrated in the PCA test using rat homocytotropic antibody--a known correlate of human reaginic antibody. Inhibition of reaginic antigen-antibody reactions in rats, the test animal of the PCA test, is regarded as representative of inhibition of human reaginic antigen-antibody reactions which occur during allergic episodes.
(§4) The ability of agents to interfere with PCA reactions is measured in male Charles River Wistar rats, 170-210 g. Reaginic antiserum, rich in IgE antibodies, is prepared according to Petillo et al., Int. Arch. Allergy, 44, 309 (1973). Hyperimmune antiserum rich in IgG antibodies to hen egg albumin is prepared according to Orange et al., J. Exptl. Med., 127, 767 (1968). Forty-eight hours prior to antigen challenge, the reaginic antiserum is injected intradermally (i.d.) into the shaved skin of a normal rat's back; 5 hours before challenge the hyperimmune antisera is similarly injected. At a third site 60 mcg. histamine dihydrochloride and 0.5 mcg. serotonin creatinine sulfate are injected i.d. just prior to antigen challenge as a check for antihistaminic, antiserotonin and unspecific types of blockage; the compounds of the instant invention or saline are then administered i.v. and immediately followed by the challenge of 5 mg. egg albumen and 2.5 mg. Evans' Blue dye in saline. In the case of oral administration Evans' Blue dye and egg albumin are given 5 minutes after administration of the drug. Thirty minutes later the animals are asphyxiated using chloroform and the skin of the back removed and reversed for observation. A score is assigned each injection site equal to the product of the diameter of the site in mm. and a grade of 0.1, 0.5, 1, 2, 3 or 4 proportional to intensity of dye coloration. The scores for a given injection site are summed for each group of five animals and compared to the saline treated controls. The difference is expressed as percent blockage due to the compound employed. […]

IgG = test: passive cutaneous anaphylaxis (PCA) test, oral, IgG (hyperimmune antiserum) site; type: in vivo, rat; conditions: Table I; for inhibition in vivo at 30 mg/kg: Rattus norvegicus, read-out: Oral Activity (% of Protection) of Amides in the PCA Test, IgG 30 mg./kg.
Protocol: as §1, §2, §3, §4

allergy and ulcer = test: antiallergy and antiulcer activity, general statement; conditions: in vivo
Protocol: as §1
The antiulcer activity of the compounds of the present invention is evaluated by the so-called cold-restraint stressed rat assay. Alternatively, the antiulcer activity is determined in a newly established ethanol-induced rat ulcer assay described below.

[1] = plasma concentration / oral absorption in dogs; type: in vivo, dog; conditions: dog; oral dosing of III
Protocol: (§5) This is supported by the observations of plasma concentrations of 3 to 7 μg/ml one hour after oral administration of III, 50 to 300 mg/kg.

[2] = plasma concentration / oral absorption in rats; type: in vivo, rat; conditions: rat; oral dosing of III
Protocol: as §5

[3] = water solubility and hygroscopicity of the sodium salt; type: physicochemical; conditions: sodium salt (trihydrate)
mediators of anaphylaxis = conditions: cited from earlier work
[4] = system: dextran induced release of histamine; test: dextran induced release of histamine into the rat peritoneal cavity; type: in vivo; conditions: ip
From the text: Compound III inhibits dextran induced release of histamine into the rat peritoneal cavity.

SMILES: CN/C(=N/CCSCc1nc[nH]c1C)NC#N [cimetidine]
effect on gastric ulcers (gastric ulcers): alleviates ulcers by reducing gastric acid secretion

SMILES: O=C(Nc1nnn[nH]1)c1cnc2sc3c(n2c1=O)CCCCC3 [Amide I, R1R2 = (CH2)5, N-(5-tetrazolyl)-1-oxo-1H-cycloheptenothiazolo[3,2-a]pyrimidine-2-carboxamide]
Oral Activity (% of Protection) of Amides in the PCA Test, IgE 10 mg./kg. (IgE): 25% | Oral Activity (% of Protection) of Amides in the PCA Test, IgG 10 mg./kg. (IgG): 38%

SMILES: O=C(Nc1nnn[nH]1)c1cnc2sc3c(n2c1=O)CCC(c1ccccc1)C3 (centres unmarked) [Amide I, R1R2 = CH2 CH(C5 H6)CH2 CH2, N-(5-tetrazolyl)-1-oxo-1H-7-phenylcyclohexenothiazolo[3,2-a]pyrimidine-2-carboxamide]
inhibition in vivo at 30 mg/kg (IgE): 4% | inhibition in vivo at 30 mg/kg (IgG): 7%

SMILES: CC1(C)[C@@H](OC(=O)CCC(=O)O)CC[C@]2(C)[C@H]3C(=O)C=C4[C@@H]5C[C@@](C)(C(=O)O)CC[C@]5(C)CC[C@@]4(C)[C@]3(C)CC[C@@H]12 [carbenoxolone sodium, disodium salt of the hemisuccinate of glycyrrhetinic acid]
effect on gastric ulcers (gastric ulcers): prevent formation of and to accelerate healing of gastric ulcers

SMILES: CCc1c(C)sc2ncc(C(=O)Nc3nnn[nH]3)c(=O)n12 [Amide I, R1 = CH3, R2 = C2 H5, N-(5-tetrazolyl)-1-oxo-1H-6-methyl-7-ethylthiazolo[3,2-a]pyrimidine-2-carboxamide]
Oral Activity (% of Protection) of Amides in the PCA Test, IgE 10 mg./kg. (IgE): 75% | Oral Activity (% of Protection) of Amides in the PCA Test, IgG 10 mg./kg. (IgG): 57%

SMILES: CC(C)c1csc2ncc(C(=O)Nc3nnn[nH]3)c(=O)n12 [Amide I, R1 = H, R2 = CH(CH3)2, N-(5-tetrazolyl)-1-oxo-1H-7-isopropylthiazolo[3,2-a]pyrimidine-2-carboxamide]
Oral Activity (% of Protection) of Amides in the PCA Test, IgE 10 mg./kg. (IgE): 72% | Oral Activity (% of Protection) of Amides in the PCA Test, IgG 10 mg./kg. (IgG): 53%

SMILES: CCc1csc2ncc(C(=O)Nc3nnn[nH]3)c(=O)n12 [Amide I, R1 = H, R2 = C2 H5, N-(5-tetrazolyl)-1-oxo-1H-7-ethylthiazolo[3,2-a]pyrimidine-2-carboxamide]
Oral Activity (% of Protection) of Amides in the PCA Test, IgE 10 mg./kg. (IgE): 70% | Oral Activity (% of Protection) of Amides in the PCA Test, IgG 10 mg./kg. (IgG): 44%

plasma levels of the carboxylic acid metabolite compared with III, dog [1]: comparable to those of III | plasma levels of the carboxylic acid metabolite compared with III, rat [2]: comparable to those of III
SMILES: O=C(O)c1cnc2sc3c(n2c1=O)CCCC3 [Acid II, R1R2 = (CH2)4, 1-oxo-1H-cyclohexenothiazolo[3,2-a]pyrimidine-2-carboxylic acid]
activity of metabolite, in words (allergy and ulcer): good activity

SMILES: O=C(Nc1nnn[nH]1)c1cnc2sc3c(n2c1=O)CCC3 [Amide I, R1R2 = (CH2)3, N-(5-tetrazolyl)-1-oxo-1H-cyclopentenothiazolo[3,2-a]pyrimidine-2-carboxamide]
Oral Activity (% of Protection) of Amides in the PCA Test, IgE 3 mg./kg. (IgE; 3 mg./kg.): 46% | Oral Activity (% of Protection) of Amides in the PCA Test, IgG 3 mg./kg. (IgG; 3 mg./kg.): 43%

SMILES: CC1(C)CCc2c(sc3ncc(C(=O)Nc4nnn[nH]4)c(=O)n23)C1 [Amide I, R1R2 = CH2 C(CH3)2 CH2 CH2, N-(5-Tetrazolyl)-1-oxo-1H-7,7-dimethylcyclohexenothiazolo[3,2-a]pyrimidine-2-carboxamide]
inhibition in vivo at 30 mg/kg (IgE): 38% | inhibition in vivo at 30 mg/kg (IgG): 27%

SMILES: CC(C)(C)c1csc2ncc(C(=O)Nc3nnn[nH]3)c(=O)n12 [Amide I, R1 = H, R2 = C(CH3)3, N-(5-tetrazolyl)-1-oxo-1H-7-(2-methyl-2-propyl)thiazolo[3,2-a]pyrimidine-2-carboxamide]
Oral Activity (% of Protection) of Amides in the PCA Test, IgE 10 mg./kg. (IgE): 37% | Oral Activity (% of Protection) of Amides in the PCA Test, IgG 10 mg./kg. (IgG): 20%

SMILES: CC1CCc2c(sc3ncc(C(=O)Nc4nnn[nH]4)c(=O)n23)C1 (centres unmarked) [Amide I, R1R2 = CH2 CH(CH3)CH2 CH2, N-(5-tetrazolyl)-1-oxo-1H-7-methylcyclohexenothiazolo[3,2-a]pyrimidine-2-carboxamide]
inhibition in vivo at 30 mg/kg (IgE): 44% | inhibition in vivo at 30 mg/kg (IgG): 33%

SMILES: CCC(C)c1csc2ncc(C(=O)Nc3nnn[nH]3)c(=O)n12 (centres unmarked) [N-(5-Tetrazolyl)-1-oxo-1H-7-(2-butyl)thiazolo[3,2-a]pyrimidine-2-carboxamide]
inhibition in vivo at 30 mg/kg (IgE): 6% | inhibition in vivo at 30 mg/kg (IgG): 6%

SMILES: CCc1sc2ncc(C(=O)Nc3nnn[nH]3)c(=O)n2c1CC [Amide I, R1 = C2 H5, R2 = C2 H5, N-(5-tetrazolyl)-1-oxo-1H-6,7-diethylthiazolo[3,2-a]pyrimidine-2-carboxamide]
Oral Activity (% of Protection) of Amides in the PCA Test, IgE 10 mg./kg. (IgE): 62% | Oral Activity (% of Protection) of Amides in the PCA Test, IgG 10 mg./kg. (IgG): 49%

SMILES: O=C(Nc1nnn[nH]1)c1cnc2sc3c(n2c1=O)CCCC3 [sodium salt (trihydrate), sodium N-(5-tetrazolyl)-1-oxo-1H-cyclohexenothiazolo[3,2-a]pyrimidine-2-carboxamide trihydrate]
hygroscopicity [3]: non-hygroscopic | water solubility [3]: good water solubility

SMILES: O=C(O)c1cc(=O)c2c(OCC(O)COc3cccc4oc(C(=O)O)cc(=O)c34)cccc2o1 [Intal, 1,3-bis(2-carboxycromon-5-yloxy)-2-hydroxy-propane]
bronchodilator activity (mediators of anaphylaxis; in vivo): not a bronchodilator | release of mediators of anaphylaxis (mediators of anaphylaxis; in vivo): inhibition of release of mediators of anaphylaxis | oral activity/efficacy of Intal (mediators of anaphylaxis; oral route): lacks efficacy by the oral route; also recorded: not active by the oral route; also recorded: lack of oral efficacy | ED50 [4]: 0.014 mg/kg

SMILES: O=C(Nc1nnn[nH]1)c1cnc2sc3c(n2c1=O)CCCCCC3 [Amide I, R1R2 = (CH2)6, N-(5-Tetrazolyl)-1-oxo-1H-cyclooctenothiazolo[3,2-a]pyrimidine-2-carboxamide]
Oral Activity (% of Protection) of Amides in the PCA Test, IgE 10 mg./kg. (IgE): 94% | Oral Activity (% of Protection) of Amides in the PCA Test, IgG 10 mg./kg. (IgG): 57%
